Results taken from ChEMBL document CHEMBL1128932, “Liposome-like fucopeptides as sialyl lewis X mimetics” (Bioorg Med Chem Lett, 1996).

Assays:
E-selectin [1] = molecular target: T1, E-selectin (Homo sapiens, UniProt P16581); test: Inhibitory activity against Selectin E
T1 sequence (P16581 whole entry): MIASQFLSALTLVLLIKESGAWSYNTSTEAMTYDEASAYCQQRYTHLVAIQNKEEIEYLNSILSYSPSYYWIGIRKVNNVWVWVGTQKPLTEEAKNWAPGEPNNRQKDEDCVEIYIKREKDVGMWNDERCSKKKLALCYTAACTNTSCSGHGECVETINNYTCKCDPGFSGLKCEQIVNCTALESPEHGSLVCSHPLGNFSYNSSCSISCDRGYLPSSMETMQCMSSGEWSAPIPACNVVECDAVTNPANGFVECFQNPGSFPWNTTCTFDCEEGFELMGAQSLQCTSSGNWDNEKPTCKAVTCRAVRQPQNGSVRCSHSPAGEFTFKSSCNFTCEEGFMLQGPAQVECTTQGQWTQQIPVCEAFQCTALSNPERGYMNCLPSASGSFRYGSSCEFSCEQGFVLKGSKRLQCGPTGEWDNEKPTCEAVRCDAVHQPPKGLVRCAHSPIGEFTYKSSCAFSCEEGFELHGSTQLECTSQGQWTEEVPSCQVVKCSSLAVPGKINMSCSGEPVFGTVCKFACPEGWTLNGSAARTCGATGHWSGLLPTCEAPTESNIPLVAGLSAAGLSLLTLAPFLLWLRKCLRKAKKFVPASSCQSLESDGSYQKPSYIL

E-selectin [2] = molecular target: T1, E-selectin; test: Ability to inhibit sialyl Lewis X binding to Selectin E was determined

| SMILES | IC50 (E-selectin [1]) [µM] | IC50 (E-selectin [2]) [µM] |
| --- | --- | --- |
| CCOC(=O)[C@@H](NC(=O)[C@@H]1[C@@H](O)[C@@H](O)CN1C(=O)CCCC(=O)O)[C@@H](C)O[C@@H]1O[C@@H](C)[C@@H](O)C(O)C1O (some centres not stated) | 50 |  |
| CCOC(=O)[C@@H](NC(=O)[C@@H]1C[C@H](O)CN1C(=O)CCCC(=O)O)[C@@H](C)O[C@@H]1O[C@@H](C)[C@@H](O)C(O)C1O (some centres not stated) | 1000 |  |
| CCOC(=O)[C@@H](NC(=O)[C@H]1C[C@H](O)CN1C(=O)CCCC(=O)O)[C@@H](C)O[C@@H]1O[C@@H](C)[C@@H](O)C(O)C1O (some centres not stated) | 100 |  |
| CCOC(=O)[C@@H](NC(=O)[C@@H]1C[C@@H](O)CN1C(=O)CCCC(=O)O)[C@@H](C)O[C@@H]1O[C@@H](C)[C@@H](O)C(O)C1O (some centres not stated) | 300 |  |
| CCOC(=O)[C@@H](NC(=O)[C@H]1C[C@@H](O)CN1C(=O)CCCC(=O)O)[C@@H](C)O[C@@H]1O[C@@H](C)[C@@H](O)C(O)C1O (some centres not stated) | 3000 |  |
| C[C@@H]1O[C@@H](O[C@@H]2CCCC[C@H]2NC(=O)[C@@H]2[C@@H](O)[C@@H](O)CN2C(=O)CCCC(=O)O)C(O)C(O)[C@@H]1O (some centres not stated) | 5000 |  |
| CCOC(=O)[C@@H](NC(=O)C(CO)(CO)NC(=O)CCCC(=O)O)[C@@H](C)O[C@@H]1O[C@@H](C)[C@@H](O)C(O)C1O (some centres not stated) | 900 |  |
| CCOC(=O)[C@@H](NC(=O)[C@H](NC(=O)CCCC(=O)O)[C@@H](O)CO)[C@@H](C)O[C@@H]1O[C@@H](C)[C@@H](O)C(O)C1O (some centres not stated) | 500 |  |
| CCCCCCCCCCCCCCCCOC(=O)CC[C@H](NCCOCCOCCNC(=O)[C@@H](NC(=O)[C@H]1C[C@H](O)CN1C(=O)CCCC(=O)O)[C@@H](C)O[C@@H]1O[C@@H](C)[C@@H](O)C(O)C1O)C(=O)OCCCCCCCCCCCCCCCC (some centres not stated) | 500 |  |
| CCCCCCCCCCCCCCCCOC(=O)CC[C@H](NC(=O)CNC(=O)[C@@H](NC(=O)[C@H]1C[C@H](O)CN1C(=O)CCCC(=O)O)[C@@H](C)O[C@@H]1O[C@@H](C)[C@@H](O)C(O)C1O)C(=O)OCCCCCCCCCCCCCCCC (some centres not stated) | 500 |  |
| CCOC(=O)[C@@H](NC(=O)C1C[C@@H](O)CN1C(=O)CCCC(=O)O)[C@@H](C)O[C@H]1O[C@@H](C)[C@@H](O)C(O)C1O (single isomer, unassigned) | 100 |  |
| CC(=O)N[C@H]1[C@H]([C@H](O)[C@H](O)CO)O[C@@](O[C@H]2[C@@H](O)[C@@H](CO)O[C@@H](O[C@@H]([C@H](O[C@@H]3O[C@@H](C)[C@@H](O)[C@@H](O)[C@@H]3O)[C@H](C=O)NC(C)=O)[C@H](O)CO)[C@@H]2O)(C(=O)O)C[C@@H]1O [SIALYL LEWIS X] |  | 500 |
